According to patent US20250367283A1, “MEVALONATE PATHWAY INHIBITOR AS HIGHLY-EFFICIENT VACCINE ADJUVANT” (Tsinghua University, priority 2015, published 2025):

Tests used:
[1] = test system: PvGGPPS (geranylgeranyl pyrophosphate synthase from Plasmodium); assay: In vitro PvGGPPS enzymatic activity assay; type: biochemical; conditions: GPP and IPP substrates
Method: PvGGPPs with 6 consecutive His at the N-terminus was induced to express in vitro, collected, and purified by Ni column. In vitro PvGGPPs enzymatic activity assay was performed in a 96-well plate at 200 μl of solution per well. The buffer of the system was 25 mM HEPES, 2.5 mM MgCl2, pH 7.4. Using GPP and IPP as reaction substrates, a 360 nm continuous spectrophotometric detection was performed in a phosphate lyase system. ORIGIN 8.0 software was used to plot and fit.

[2] = test system: Plasmodium falciparum 3D7; assay: Test of plasmodium activity (SYBR-GREEN1); type: cell-based; conditions: infected erythrocytes, 72 hours; read-out: Malaria (IC50/μM)
Method: Plasmodium falciparum 3D7 was cultured with […] medium mixed with 10% human O-type blood serum and 25 mM HEPES. The cultivation process was maintained in a carbon dioxide incubator under 5% carbon dioxide. In vitro drug testing experiments were performed on a 96-well plate. The test drug was dissolved in PBS and pre-diluted with complete medium. Infected erythrocytes were cultured in triplicate for 72 hours in 3-fold serial dilutions of drug. Then an equal amount of SYBR-GREEN1 was added to each well. The detection was then performed at 485 nm for excitation light and 538 nm for emitted light. […] ORIGIN 8.0 software was used to plot and fit.

[3] = test system: anti-OVA IgM and IgG antibodies; assay: OVA evaluation system: adjuvant activity in antibody titer in mice; type: in vivo; conditions: for adjuvant effect among bisphosphonic acid compounds / adjuvant effect vs 8 commercially available bisphosphonic acid compounds: 100 ug; for adjuvant effect among TH-Z80 series: intramuscular, OVA
Method: OVA evaluation system was used to determine adjuvant activity in antibody titer.
Mice of C57B/6 strain were used. The mice in the experimental group were injected with the obtained mixture of each of the statins and OVA antigen through soles injection, with 20 μl for each mouse. The mice in the control group were injected with a 1:1 mixture of PBS or DMSO (10 μl) and 10 μl OVA antigen (PBS or DMSO is 10 μl, respectively, and the antigen is 10 μl) through soles injection, with 20 μl for each mouse. On Day 7 and Day 14 after immunization, blood was taken from the mice's orbits, with 100 μl was taken from each mouse. The obtained blood was left at 4° C. overnight, and centrifuged at 6000 rpm for 8 min. The supernatant serum was removed and the titers of anti-OVA IgM and IgG antibodies in the serum were determined.
Test of the OVA antibody titer: The OVA protein was diluted to a concentration of 2 μg/ml with a carbonate solution of pH 9.6, coated in a 96-well ELISA plate at 50 μl per well, and left at 4° C. overnight. The ELISA plate was washed five times with PBS containing 0.05% Tween 20, blocked with 1% BSA solution at 200 μl per well, and incubated at room temperature for 2 h. The ELISA plate was washed five times with PBST (Phosphate Buffered Saline with Tween), a 2-fold serial dilution of the mouse serum after immunized with OVA was added at 50 μl per well and incubated at room temperature for 2 h. After the ELISA plate was washed five times with PBST, HRP (horseradish peroxidase)-labeled goat-anti-mouse IgM or IgG antibody was added and incubated at room temperature for 45 min. The ELISA plate was washed five times with PBST, and a color developing solution of sodium citrate OPD (o-phenylenediamine) was added. After 10 min of color development in the dark, sulfuric acid was added to terminate the reaction. The reading was performed with ELIASA OD490. The maximum serum dilution factor, when the ratio of light absorptions of the experimental group to the control group was >2.0, was the titer of the anti-OVA antibody in the serum.
Each test compound was formulated at a concentration of 2 mg/ml and the concentration of OVA antigen was 2 mg/ml. Each compound was mixed with OVA at 1:1. Each C57B/6 mouse in the experimental group was injected with 100 μl of the mixture (containing 50 μl of the antigen and 50 μl of the compound) by intramuscular injection at the right thigh. On Day 7 and Day 14 after immunization, blood was taken from the mice's orbit, and 100 μl was taken for each mouse. The obtained blood was allowed to stand at 4° C. overnight, and centrifuged at 6000 rpm for 8 min. The supernatant serum was removed, and the titers of anti-OVA IgM and IgG antibodies in the serum were determined.
Method: each of the test compounds (the 10 bisphosphonates as described above) was mixed with the OVE antigen at 1:1, and the concentrations of bisphosphonic acid and OVA were both 10 mg/ml. Mice of C57B/6 strain were used. The mice in the experimental group were injected with the mixture of each of the test compounds and OVA antigen through soles injection, with 20 μl for each mouse, and wherein the amounts of OVA antigen and each of the test compounds were both 100 ug. The mice in the control group were injected with a 1:1 mixture of […] and 10 μl OVA antigen through sole injection. On Day 7 and Day 14 after immunization, blood was taken from the mice's orbits, and 100 μl was taken from each mouse.
The obtained blood was left at 4° C. overnight, and centrifuged at 6000 rpm for 8 min. The supernatant serum was removed, and the titers of anti-OVA IgM and IgG antibodies in the serum were determined.
Method: TH-Z144 and TH-Z145 were prepared at the concentration of 10 mg/ml, the concentration of OVA antigen was also 10 mg/ml, and the compound and the antigen were mixed at 1:1. Mice of C57B/6 strain were used.

[4] = bisphosphonic acids 100 ug with OVA, soles injection, Day 7 and Day 14

Molecule | IC50 [1] [µM] | IC50 [2] [µM] | adjuvant effect among TH-Z80 series [3] | also measured
CCCCCCOc1ccc2c(c1)ncn2CC(O)(P(=O)(O)O)P(=O)(O)O [TH-Z80] | 0.37 | 1.76 | most significant adjuvant effects | adjuvant effect among bisphosphonic acid compounds ([3]; soles injection): most significant adjuvant effects; adjuvant effect vs 8 commercially available bisphosphonic acid compounds ([3]; soles injection): much higher than any of the 8 commercially available bisphosphonic acid compounds; IgM and IgG antibody titers vs PBS control [3, 4]: more than five times higher; antibody titers vs PBS control at different immunization sites ([3]; soles, subcutaneous, muscle, abdominal and nasal mucosa): significantly increased
CCCCCCCCOc1ccc2c(c1)ncn2CC(O)(P(=O)(O)O)P(=O)(O)O [TH-Z81] | 2.07 | 1.95 | most significant adjuvant effects | 
CCCCCCOc1ccnc(NC(P(=O)(O)O)P(=O)(O)O)c1 [TH-Z93, (((4-(hexyloxy)pyridin-2-yl)amino)methylene)bisphosphonic acid] |  |  |  | adjuvant effect among bisphosphonic acid compounds ([3]; soles injection): most significant adjuvant effects; adjuvant effect vs 8 commercially available bisphosphonic acid compounds ([3]; soles injection): much higher than any of the 8 commercially available bisphosphonic acid compounds; IgM and IgG antibody titers vs PBS control [3, 4]: more than five times higher
CCCCCCCOc1ccc2c(c1)ncn2CC(O)(P(=O)(O)O)P(=O)(O)O [TH-Z152] | 0.95 | 1.21 | most significant adjuvant effects | 
CCCCCCCCCOc1ccc2c(c1)ncn2CC(O)(P(=O)(O)O)P(=O)(O)O [TH-Z153] | 1.09 | 1.28 | most significant adjuvant effects | 
CCC(C)(C)C(=O)O[C@H]1C[C@@H](C)C=C2C=C[C@H](C)[C@H](CC[C@@H]3C[C@@H](O)CC(=O)O3)[C@H]21 [simvastatin, reference compound] |  |  |  | adjuvant effect among statin drugs ([3]; statins with OVA, soles injection): most significant adjuvant effects; IgM and IgG antibody titers vs PBS or DMSO control ([3]; statins with OVA, soles injection, Day 7 and Day 14): significantly higher titers
(2-(3-(octyloxy)phenyl)ethane-1,1-diyl)bisphosphonic acid [TH-Z145] |  |  |  | IgM and IgG antibody titers vs PBS control ([3]; GGPPS inhibitors 100 μg with OVA, right sole, Day 7 and Day 14): significantly higher titers
